Assay results: ChEMBL document CHEMBL5042500 (J Med Chem, 2022)
In brackets after ≈: the same amount, converted by molar mass. Activity calls are given as the source filed them. No cut-off for these calls is given here.

Experiments:
[1] = Cmax in Lewis rat plasma at 30 mg/kg, po measured after 8 hrs; assay type: ADME, organism-based; parameters: route oral, time 8 hrs, dose 30 mg/kg
[2] = target: T1, Serine/threonine-protein kinase Sgk2 (Homo sapiens, UniProt Q9HBY8); assay: Inhibition of human SGK2 in presence 500 uM presence of ATP
T1 sequence (Q9HBY8 whole entry): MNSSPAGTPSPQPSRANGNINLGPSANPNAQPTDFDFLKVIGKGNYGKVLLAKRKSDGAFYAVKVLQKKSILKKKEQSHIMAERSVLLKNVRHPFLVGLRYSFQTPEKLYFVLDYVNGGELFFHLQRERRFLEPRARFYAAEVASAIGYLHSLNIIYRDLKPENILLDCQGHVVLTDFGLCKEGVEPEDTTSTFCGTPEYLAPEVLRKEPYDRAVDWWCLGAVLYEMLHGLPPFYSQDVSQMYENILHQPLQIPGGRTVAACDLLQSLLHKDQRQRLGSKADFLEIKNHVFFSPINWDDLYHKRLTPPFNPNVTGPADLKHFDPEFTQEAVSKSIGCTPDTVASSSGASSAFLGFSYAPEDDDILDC

[3] = target: T2, Serine/threonine-protein kinase Sgk1 (Homo sapiens, UniProt O00141); assay: Inhibition of recombinant human SGK1 expressed in baculovirus expression system using 5-carboxyfluorescein -RPRAATF-NH2 as substrate preincubated for 30 mins followed by substrate addition in presence of 10 uM ATP and measured after 60 mins by microfluidics assay
T2 sequence (O00141 whole entry): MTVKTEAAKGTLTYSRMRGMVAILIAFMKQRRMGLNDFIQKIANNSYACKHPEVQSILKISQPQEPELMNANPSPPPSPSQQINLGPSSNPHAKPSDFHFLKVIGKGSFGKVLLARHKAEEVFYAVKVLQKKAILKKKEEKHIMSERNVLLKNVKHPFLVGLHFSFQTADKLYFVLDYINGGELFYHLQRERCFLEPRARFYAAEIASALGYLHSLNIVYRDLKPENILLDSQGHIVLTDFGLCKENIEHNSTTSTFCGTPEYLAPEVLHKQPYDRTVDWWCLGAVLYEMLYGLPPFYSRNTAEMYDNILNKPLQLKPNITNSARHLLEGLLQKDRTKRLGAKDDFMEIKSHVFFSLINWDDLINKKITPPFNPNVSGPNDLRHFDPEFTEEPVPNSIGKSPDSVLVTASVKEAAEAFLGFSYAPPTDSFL

[4] = target: CYP3A4 (Homo sapiens, UniProt P08684); assay: Inhibition of CYP3A4 in human liver microsomes by measuring maximum efficacy; assay type: ADME
Chain of CYP3A4 (P08684 whole entry): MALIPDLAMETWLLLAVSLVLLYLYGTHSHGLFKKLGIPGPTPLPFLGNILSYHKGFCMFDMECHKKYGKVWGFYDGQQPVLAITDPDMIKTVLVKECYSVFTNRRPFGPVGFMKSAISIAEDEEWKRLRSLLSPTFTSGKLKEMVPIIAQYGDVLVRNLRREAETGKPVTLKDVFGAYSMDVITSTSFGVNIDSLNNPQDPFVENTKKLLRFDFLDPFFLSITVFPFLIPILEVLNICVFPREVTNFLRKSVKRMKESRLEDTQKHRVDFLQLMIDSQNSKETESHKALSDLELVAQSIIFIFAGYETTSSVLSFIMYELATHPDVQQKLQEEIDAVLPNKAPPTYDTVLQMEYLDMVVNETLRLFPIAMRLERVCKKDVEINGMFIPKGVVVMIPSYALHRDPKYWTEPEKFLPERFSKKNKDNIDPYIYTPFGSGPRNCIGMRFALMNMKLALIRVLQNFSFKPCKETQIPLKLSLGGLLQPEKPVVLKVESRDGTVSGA

[5] = target: T3, hERG (KCNH2) (Homo sapiens, UniProt Q12809); assay: Inhibition of human ERG at 1 uM relative to control; assay type: toxicity
T3 sequence (Q12809 whole entry): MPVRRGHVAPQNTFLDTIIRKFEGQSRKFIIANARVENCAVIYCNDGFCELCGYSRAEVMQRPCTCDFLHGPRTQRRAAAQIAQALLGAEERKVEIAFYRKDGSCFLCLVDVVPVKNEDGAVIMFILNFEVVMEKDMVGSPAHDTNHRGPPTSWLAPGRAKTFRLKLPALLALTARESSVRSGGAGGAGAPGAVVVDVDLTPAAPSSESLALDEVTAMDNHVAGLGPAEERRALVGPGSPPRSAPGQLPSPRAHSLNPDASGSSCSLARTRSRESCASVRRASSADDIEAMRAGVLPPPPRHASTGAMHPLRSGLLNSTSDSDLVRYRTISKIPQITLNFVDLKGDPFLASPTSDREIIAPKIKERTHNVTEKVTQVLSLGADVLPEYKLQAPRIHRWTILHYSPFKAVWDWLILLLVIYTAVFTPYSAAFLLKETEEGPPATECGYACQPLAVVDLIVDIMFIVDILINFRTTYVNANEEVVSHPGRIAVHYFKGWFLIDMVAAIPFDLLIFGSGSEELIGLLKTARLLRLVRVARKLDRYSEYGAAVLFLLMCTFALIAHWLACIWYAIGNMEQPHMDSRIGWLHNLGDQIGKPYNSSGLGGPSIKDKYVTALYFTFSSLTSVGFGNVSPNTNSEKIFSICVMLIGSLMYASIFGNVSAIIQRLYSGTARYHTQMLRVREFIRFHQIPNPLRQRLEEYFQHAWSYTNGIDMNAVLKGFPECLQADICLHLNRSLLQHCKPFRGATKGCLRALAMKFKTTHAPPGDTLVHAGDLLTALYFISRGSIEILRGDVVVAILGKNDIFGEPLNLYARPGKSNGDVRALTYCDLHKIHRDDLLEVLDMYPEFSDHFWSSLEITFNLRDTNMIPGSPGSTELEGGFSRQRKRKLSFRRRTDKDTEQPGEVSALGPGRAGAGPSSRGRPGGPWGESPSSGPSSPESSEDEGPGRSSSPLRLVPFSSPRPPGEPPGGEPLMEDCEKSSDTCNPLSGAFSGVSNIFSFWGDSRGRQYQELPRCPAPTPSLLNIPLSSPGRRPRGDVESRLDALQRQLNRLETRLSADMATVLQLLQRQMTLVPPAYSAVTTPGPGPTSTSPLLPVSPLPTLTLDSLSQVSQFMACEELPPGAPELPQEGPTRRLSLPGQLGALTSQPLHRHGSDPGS

[6] = Aqueous solubility of the compound at pH 7.4; assay type: physicochemical
[7] = Effect on chondrocyte hypertrophic differentiation mouse ATDC-5 cells assessed as inhibition of […] gene expression incubated for 2 weeks followed by compound added and every 3 days medium is changed measured after 2 weeks by RT-qPCR analysis; assay type: functional, cell-based
[8] = target: T3, hERG (KCNH2); assay: Inhibition of human ERG at 10 uM; assay type: toxicity
[9] = Tmax in Sprague-Dawley rat plasma at 30 mg/kg, po; assay type: ADME, organism-based
[10] = Metabolic stability in Sprague-Dawley rat liver microsomes assessed as compound degradation in presence of NADPH measured after 20 mins; assay type: ADME, Microsome; conditions: read-out: Drug degradation
[11] = target: T4, Cytochrome P450 3A4 (Homo sapiens, UniProt P08684); assay: Inhibition of CYP3A4 in human liver microsomes using testosterone as substrate incubated for 30 mins by LC-MS/MS analysis; assay type: ADME
T4 sequence (P08684 whole entry): as the sequence (P08684 whole entry) above

[12] = Metabolic stability in human liver microsomes assessed as compound degradation in presence of NADPH measured after 20 mins; assay type: ADME, Microsome; conditions: read-out: Drug degradation
[13] = tested on: Femur; assay: (§1) Induction of chondrogenesis in femoral head cartilage isolated from C57BL/6 mouse model of osteoarthritis assessed as reduction in intensity of collagen type x staining incubated for 2 weeks in hypertrophic condition and twice for week medium is changed by immunohistochemical staining based analysis; assay type: functional, tissue-based
[14] = target: T2, Serine/threonine-protein kinase Sgk1; assay: Inhibition of recombinant human SGK1 expressed in baculovirus expression system using 5-carboxyfluorescein -RPRAATF-NH2 as substrate preincubated for 30 mins followed by substrate addition in presence of 500 uM ATP and measured after 60 mins by microfluidics assay
[15] = Half life in Sprague-Dawley rat plasma at 30 mg/kg, po; assay type: ADME, organism-based
[16] = Distribution coefficient, logD of compound at pH 7.4 by chromatographic analysis; assay type: physicochemical; conditions: octanol/water
[17] = Cmax in Sprague-Dawley rat plasma at 30 mg/kg, po; assay type: ADME, organism-based; parameters: route oral, dose 30 mg/kg
[18] = Ratio of AUC(0 to 24 hrs) in femoral head to plasma in rat measured after 2 hrs; assay type: ADME, Bone/Plasma; conditions: read-out: Selectivity ratio
[19] = Tmax in Lewis rat femoral head cartilage at 30 mg/kg, po measured after 8 hrs; assay type: ADME, organism-based, Femur
[20] = Cmax in Lewis rat femoral head cartilage at 30 mg/kg, po measured after 8 hrs; assay type: ADME, organism-based, Femur; parameters: route oral, time 8 hrs, dose 30 mg/kg
[21] = AUC (0 to 24 hrs) in Lewis rat femoral head cartilage at 30 mg/kg, po measured after 8 hrs; assay type: ADME, organism-based, Femur; parameters: route oral, dose 30 mg/kg, time 8 hrs
[22] = target: T5, Serine/threonine-protein kinase Sgk3 (Homo sapiens, UniProt Q96BR1); assay: Inhibition of human SGK3 in presence 500 uM presence of ATP
T5 sequence (Q96BR1 whole entry): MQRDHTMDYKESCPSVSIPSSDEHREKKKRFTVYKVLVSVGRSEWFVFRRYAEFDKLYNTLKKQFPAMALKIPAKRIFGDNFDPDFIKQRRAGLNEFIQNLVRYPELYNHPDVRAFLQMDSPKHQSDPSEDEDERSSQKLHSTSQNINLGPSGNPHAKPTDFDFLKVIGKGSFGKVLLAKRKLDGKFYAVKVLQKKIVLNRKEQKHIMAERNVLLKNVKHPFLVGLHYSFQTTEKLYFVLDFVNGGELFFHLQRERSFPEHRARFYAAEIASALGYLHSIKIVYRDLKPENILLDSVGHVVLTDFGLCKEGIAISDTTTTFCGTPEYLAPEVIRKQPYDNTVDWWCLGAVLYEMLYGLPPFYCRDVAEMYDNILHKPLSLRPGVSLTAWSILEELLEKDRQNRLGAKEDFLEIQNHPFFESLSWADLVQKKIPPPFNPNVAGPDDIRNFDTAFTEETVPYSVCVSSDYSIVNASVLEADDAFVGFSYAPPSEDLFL

[23] = Tmax in Lewis rat plasma at 30 mg/kg, po measured after 8 hrs; assay type: ADME, organism-based
[24] = target: T6, Serine/threonine-protein kinase Sgk1 (Mus musculus, UniProt Q9WVC6); assay: Inhibition of mouse SGK1 in presence 500 uM presence of ATP
T6 sequence (Q9WVC6 whole entry): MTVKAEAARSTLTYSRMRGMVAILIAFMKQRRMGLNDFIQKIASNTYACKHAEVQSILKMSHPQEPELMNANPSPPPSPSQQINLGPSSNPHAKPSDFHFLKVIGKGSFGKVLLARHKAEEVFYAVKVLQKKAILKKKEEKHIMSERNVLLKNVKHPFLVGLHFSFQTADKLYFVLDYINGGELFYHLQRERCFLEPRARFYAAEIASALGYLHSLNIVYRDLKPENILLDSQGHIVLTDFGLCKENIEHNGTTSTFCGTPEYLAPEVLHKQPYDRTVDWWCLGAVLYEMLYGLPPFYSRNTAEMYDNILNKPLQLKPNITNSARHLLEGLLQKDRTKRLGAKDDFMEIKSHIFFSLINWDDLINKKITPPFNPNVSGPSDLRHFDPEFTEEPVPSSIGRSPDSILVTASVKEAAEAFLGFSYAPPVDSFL

[25] = AUC (0 to 24 hrs) in Lewis rat plasma at 30 mg/kg, po measured after 8 hrs; assay type: ADME, organism-based; parameters: route oral, dose 30 mg/kg, time 8 hrs
[26] = AUC (0 to 24 hrs) in Sprague-Dawley rat plasma at 30 mg/kg, po; assay type: ADME, organism-based; parameters: time < 24 hr, route oral, dose 30 mg/kg
[27] = Inhibition of rat SGK1 in presence 500 uM presence of ATP
[28] = Intrinsic clearance in human hepatocytes assessed per 10^-6 cells; assay type: ADME, cell-based, Hepatocyte
[29] = Permeability in human Caco2 cells at 20 uM incubated for 120 mins by ESI-MS/MS analysis; assay type: ADME, cell-based; conditions: Caco-2, read-out: permeability
[30] = Chemical stability of the compound at pH 7.4 measured after 24 hrs; assay type: physicochemical; conditions: buffer, read-out: Stability
[31] = target: T4, Cytochrome P450 3A4; assay: Inhibition of CYP3A4 in human liver microsomes using midazolam as substrate incubated for 10 mins by LC-MS/MS analysis; assay type: ADME
[32] = tested on: Salmonella typhimurium; assay: Mutagenicity in Salmonella typhimurium […] in presence of S9 fraction by ames test; assay type: toxicity, organism-based; conditions: salmonella enterica subsp. enterica serovar typhimurium
[33] = Metabolic stability in CD1 mouse liver microsomes assessed as compound degradation in presence of NADPH measured after 20 mins; assay type: ADME, Microsome; conditions: read-out: Drug degradation
[34] = target: Ribosomal protein S6 kinase alpha-1 (Homo sapiens) (UniProt Q15418); assay: Inhibition of RSK1 kinase (unknown origin) at 0.1 uM
Chain of Ribosomal protein S6 kinase alpha-1 (Homo sapiens) (Q15418 whole entry): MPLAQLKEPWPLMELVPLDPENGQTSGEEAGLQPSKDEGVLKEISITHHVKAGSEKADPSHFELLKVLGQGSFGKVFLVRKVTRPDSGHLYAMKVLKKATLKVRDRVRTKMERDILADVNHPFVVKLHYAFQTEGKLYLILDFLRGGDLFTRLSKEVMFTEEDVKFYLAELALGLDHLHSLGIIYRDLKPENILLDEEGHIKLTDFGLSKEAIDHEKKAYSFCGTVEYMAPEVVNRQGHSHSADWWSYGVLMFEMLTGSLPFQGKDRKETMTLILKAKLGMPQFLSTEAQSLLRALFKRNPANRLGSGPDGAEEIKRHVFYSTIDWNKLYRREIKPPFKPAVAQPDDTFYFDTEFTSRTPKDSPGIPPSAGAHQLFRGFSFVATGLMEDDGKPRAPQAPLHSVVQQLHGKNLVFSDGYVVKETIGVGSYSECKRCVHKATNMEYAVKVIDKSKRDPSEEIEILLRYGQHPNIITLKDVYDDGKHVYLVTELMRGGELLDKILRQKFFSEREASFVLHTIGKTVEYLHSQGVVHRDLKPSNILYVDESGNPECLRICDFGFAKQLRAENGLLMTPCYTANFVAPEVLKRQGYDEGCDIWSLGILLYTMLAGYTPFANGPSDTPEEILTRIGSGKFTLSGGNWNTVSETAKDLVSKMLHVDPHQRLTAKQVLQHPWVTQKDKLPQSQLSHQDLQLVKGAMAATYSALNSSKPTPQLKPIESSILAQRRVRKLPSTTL

[35] = tested on: Femur; assay: as §1, with “x staining at 10 uM incubated for” for “x staining incubated for”; assay type: functional, tissue-based
[36] = tested on: Femur; assay: as §1, with “x staining at 2 uM incubated for” for “x staining incubated for”; assay type: functional, tissue-based
[37] = tested on: Salmonella typhimurium; assay: Mutagenicity in Salmonella typhimurium […] by ames test; assay type: toxicity, organism-based; conditions: salmonella enterica subsp. enterica serovar typhimurium

Structure (SMILES) | Emax [4] | inhibition at 1 µM [5] | solubility [6] | IC50 [7] | inhibition at 10 µM [8] | metabolised at 20 min [10] | IC50 [11] | metabolised at 20 min [12] | Activity [13] | chromatographic logD [16] | IC50 [24] | IC50 [27] | Papp at 2 h, 20 µM [29] | remaining at 24 h [30] | IC50 [31] | Activity [32] | metabolised at 20 min [33] | also measured
N#Cc1ccc(Cl)cc1S(=O)(=O)Nc1ccc(-c2ncc3c(N)n[nH]c3n2)cc1 | 17% | 0% | 58 µg/mL (≈ 136 µM) | 0.55 µM | 11% | 2% | > 30 µM | 3% | Active | 1.13 | 0.294 µM | 0.303 µM | 1.5 ×10⁻⁶ cm/s | 100% | > 30 µM | Non-Toxic | 3% | Cmax [1]: 2970 ng/mL; IC50 [2]: 0.021 µM; IC50 [3]: 0.003 µM; Tmax [9]: 4 h; IC50 [14]: 0.009 µM; half-life [15]: 2.8 h; Cmax [17]: 10600 ng/mL; Kp at 2 h [18]: 0.047; Tmax [19]: 2 h; Cmax [20]: 890 ng/mL; AUC(0-t) at 8 h [21]: 5200 ng·h/mL; IC50 [22]: 0.211 µM; Tmax [23]: 4 h; AUC(0-t) at 8 h [25]: 33000 ng·h/mL; AUC(0-t) at 24 h [26]: 110000 ng·h/mL; CLH [28]: 0.005 mL/h
O=S(=O)(Nc1ccc(-c2nc(O[C@H]3CC[C@H](O)CC3)c3cn[nH]c3n2)cc1)c1cc(Cl)ccc1F | 13% | 0% | 4 µg/mL (≈ 7.72 µM) | 0.05 µM | 65% | 7% | > 3 µM | 13% | Active | 2.8 | 0.253 µM | 0.358 µM | 8.6 ×10⁻⁶ cm/s | 100% | > 3 µM | Non-Toxic | 6% | inhibition [34]: 57%; Activity [35]: Active; Activity [36]: inactive; Activity [37]: Non-Toxic
